# Source: ChEMBL document CHEMBL1124659 (J Med Chem, 1989)
# Key:
# [1] = target: T1, Angiotensin II receptor (Rattus norvegicus, UniProt P29089+P25095+P35351); assay: Tested for inhibition of radioligand [Sar1,Ile5,8]AII binding to angiotensin II receptor in rat brain; format: tissue-based
# T1 sequence (P29089 whole entry): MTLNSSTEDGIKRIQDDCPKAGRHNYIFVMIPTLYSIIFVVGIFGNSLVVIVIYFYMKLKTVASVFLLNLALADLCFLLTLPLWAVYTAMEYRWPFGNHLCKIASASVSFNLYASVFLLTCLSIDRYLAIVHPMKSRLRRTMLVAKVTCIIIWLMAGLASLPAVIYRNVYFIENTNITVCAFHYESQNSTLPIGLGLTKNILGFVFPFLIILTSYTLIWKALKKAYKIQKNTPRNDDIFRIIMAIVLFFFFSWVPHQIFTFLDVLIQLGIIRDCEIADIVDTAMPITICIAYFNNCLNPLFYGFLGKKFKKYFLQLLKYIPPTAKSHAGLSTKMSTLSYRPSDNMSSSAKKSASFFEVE
# T1 sequence (P25095 whole entry): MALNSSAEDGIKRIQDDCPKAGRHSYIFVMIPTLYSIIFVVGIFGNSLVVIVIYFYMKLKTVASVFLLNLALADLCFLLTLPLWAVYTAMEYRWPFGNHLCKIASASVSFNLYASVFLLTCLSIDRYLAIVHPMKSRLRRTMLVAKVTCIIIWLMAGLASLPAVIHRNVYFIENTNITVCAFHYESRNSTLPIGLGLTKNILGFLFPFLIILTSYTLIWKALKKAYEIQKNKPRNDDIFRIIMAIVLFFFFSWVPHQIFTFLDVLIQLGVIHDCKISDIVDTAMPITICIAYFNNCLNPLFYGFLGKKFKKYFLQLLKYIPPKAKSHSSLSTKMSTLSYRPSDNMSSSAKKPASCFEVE
# T1 sequence (P35351 whole entry): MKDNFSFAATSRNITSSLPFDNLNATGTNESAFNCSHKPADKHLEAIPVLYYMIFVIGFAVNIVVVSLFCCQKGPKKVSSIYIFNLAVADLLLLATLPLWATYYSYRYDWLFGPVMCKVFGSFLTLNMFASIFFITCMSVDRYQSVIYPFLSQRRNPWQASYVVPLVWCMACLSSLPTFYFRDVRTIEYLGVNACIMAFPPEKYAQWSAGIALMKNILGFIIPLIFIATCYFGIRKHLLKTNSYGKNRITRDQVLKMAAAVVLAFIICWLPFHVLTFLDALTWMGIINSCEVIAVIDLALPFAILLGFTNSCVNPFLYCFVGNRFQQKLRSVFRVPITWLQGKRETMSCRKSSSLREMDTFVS
# [2] = target: T1, Angiotensin II receptor; assay: Tested for inhibition of radioligand [Sar1,Ile5,8]AII binding to angiotensin II receptor in rat uterus
# [3] = organism: Rattus norvegicus; assay: Inhibitory activity was determined in rat uterine preparations at a compound dose of 2 ng/mL; format: functional
# [4] = organism: Rattus norvegicus; assay: Inhibitory activity was determined in rat uterine preparations at a compound dose of 4 ng/mL; format: functional
# [5] = organism: Rattus norvegicus; assay: Inhibitory activity was determined in rat uterine preparations at a compound dose of 6 ng/mL; format: functional
# [6] = organism: Rattus norvegicus; assay: Agonistic activity in rat uterine preparations; format: functional
# [7] = target: T2, Angiotensin II receptor (Rattus norvegicus) (UniProt P29089+P25095+P35351); assay: Inhibitory activity was determined against Angiotensin II receptor in rat uterine preparations at a compound dose of 2 ng/mL
# [8] = target: T2, Angiotensin II receptor (Rattus norvegicus); assay: Inhibitory activity was determined against Angiotensin II receptor in rat uterine preparations at a compound dose of 4 ng/mL
# [9] = target: T2, Angiotensin II receptor (Rattus norvegicus); assay: Inhibitory activity was determined against Angiotensin II receptor in rat uterine preparations at a compound dose of 6 ng/mL
# [10] = organism: Rattus norvegicus; assay: Time period for the pressor response of angiotensin II to return to 50% of its treatment level at a compound dose of 10 ug; format: functional, organism-based
# [11] = organism: Rattus norvegicus; assay: Time period for the pressor response of angiotensin II to return to 50% of its treatment level at a compound dose of 60 ug; format: functional, organism-based
# [12] = organism: Rattus norvegicus; assay: Time period for the pressor response of angiotensin II to return to 50% of its treatment level at a compound dose of 30 ug; format: functional, organism-based
compound,measurement,setting,value
CNCC(=O)N[C@@H](CCCN=C(N)N)C(=O)N[C@H](C(=O)N[C@@H](Cc1ccc(O)cc1)C(=O)N[C@H](C(=O)N[C@@H](Cc1c[nH]cn1)C(=O)N1CCC[C@H]1C(=O)N[C@H](C(=O)O)C(c1ccccc1)c1ccccc1)C(C)C)C(C)C [listing 1 of 2 here],Ki,[1],0.85 nM
same,Ki,[2],1.23 nM
CNCC(=O)N[C@@H](CCCN=C(N)N)C(=O)N[C@H](C(=O)N[C@@H](Cc1ccc(O)cc1)C(=O)N[C@H](C(=O)N[C@@H](Cc1c[nH]cn1)C(=O)N1CCC[C@H]1C(=O)NC1(C(=O)O)Cc2ccccc2C1)C(C)C)C(C)C [listing 1 of 2 here],Activity,[3],8.7
same,Activity,[4],16.2
same,Activity,[5],31.8
CNCC(=O)N[C@@H](CCCN=C(N)N)C(=O)N[C@H](C(=O)N[C@@H](Cc1ccc(O)cc1)C(=O)N[C@H](C(=O)N[C@@H](Cc1c[nH]cn1)C(=O)N1CCC[C@H]1C(=O)N[C@@H](C(=O)O)C(c1ccccc1)c1ccccc1)C(C)C)C(C)C [listing 1 of 2 here],Ki,[1],1.64 nM
same,Ki,[2],6.08 nM
CNCC(=O)N[C@@H](CCCN=C(N)N)C(=O)N[C@H](C(=O)N[C@@H](Cc1ccc(O)cc1)C(=O)N[C@H](C(=O)N[C@@H](Cc1c[nH]cn1)C(=O)N1CCC[C@H]1C(=O)N[C@H](C(=O)O)C(c1ccccc1)c1ccccc1)C(C)C)C(C)C [listing 2 of 2 here],Activity,[6],284%
CNCC(=O)N[C@@H](CCCN=C(N)N)C(=O)N[C@H](C(=O)N[C@@H](Cc1ccc(O)cc1)C(=O)N[C@H](C(=O)N[C@@H](Cc1c[nH]cn1)C(=O)N1CCC[C@H]1C(=O)N[C@H](Cc1ccc(-c2ccccc2)cc1)C(=O)O)C(C)C)C(C)C [listing 1 of 2 here],Ki,[1],0.46 nM
same,Ki,[2],0.74 nM
CNCC(=O)N[C@@H](CCCN=C(N)N)C(=O)N[C@H](C(=O)N[C@@H](Cc1ccc(O)cc1)C(=O)N[C@H](C(=O)N[C@@H](Cc1c[nH]cn1)C(=O)N1CCC[C@@H]1C(=O)N[C@H](CC(C)C)C(=O)O)C(C)C)C(C)C,Activity,[7],1.7
same,Activity,[8],3.9
same,Activity,[9],22.2
same,Recovery time,[10],34 min
same,Recovery time,[11],83 min
same,Recovery time,[12],72 min
CNCC(=O)N[C@@H](CCCN=C(N)N)C(=O)N[C@H](C(=O)N[C@@H](Cc1ccc(O)cc1)C(=O)N[C@H](C(=O)N[C@@H](Cc1c[nH]cn1)C(=O)N1CCC[C@H]1C(N)=O)C(C)C)C(C)C,Ki,[1],9310 nM
same,Ki,[2],52.8 nM
H-NRVYVHPF-OH [ANGIOTENSIN AMIDE],Ki,[1],1.64 nM
same,Ki,[2],5.48 nM
same,Activity,[6],100%
CNCC(=O)N[C@@H](CCCN=C(N)N)C(=O)N[C@H](C(=O)N[C@@H](Cc1ccc(O)cc1)C(=O)N[C@H](C(=O)N[C@@H](Cc1c[nH]cn1)C(=O)N1CCC[C@H]1C(=O)N[C@@H](Cc1ccc(-c2ccccc2)cc1)C(=O)O)C(C)C)C(C)C [listing 1 of 2 here],Ki,[1],1 nM
same,Ki,[2],1.74 nM
CNCC(=O)N[C@@H](CCCN=C(N)N)C(=O)N[C@H](C(=O)N[C@@H](Cc1ccc(O)cc1)C(=O)N[C@H](C(=O)N[C@@H](Cc1c[nH]cn1)C(=O)N1CCC[C@H]1C(=O)N[C@H](Cc1ccc(-c2ccccc2)cc1)C(=O)O)C(C)C)C(C)C [listing 2 of 2 here],Activity,[3],7.2
same,Activity,[4],24.6
same,Activity,[5],44.7
CNCC(=O)N[C@@H](CCCN=C(N)N)C(=O)N[C@H](C(=O)N[C@@H](Cc1ccc(O)cc1)C(=O)N[C@H](C(=O)N[C@@H](Cc1c[nH]cn1)C(=O)N1CCC[C@H]1C(=O)N[C@@H](C(=O)O)C(c1ccccc1)c1ccccc1)C(C)C)C(C)C [listing 2 of 2 here],Activity,[6],48%
CNCC(=O)N[C@@H](CCCN=C(N)N)C(=O)N[C@H](C(=O)N[C@@H](Cc1ccc(O)cc1)C(=O)N[C@H](C(=O)N[C@@H](Cc1c[nH]cn1)C(=O)N1CCC[C@H]1C(=O)NC1(C(=O)O)Cc2ccccc2C1)C(C)C)C(C)C [listing 2 of 2 here],Ki,[1],1.82 nM
same,Ki,[2],1.52 nM
CNCC(=O)N[C@@H](CCCN=C(N)N)C(=O)N[C@H](C(=O)N[C@@H](Cc1ccc(O)cc1)C(=O)N[C@H](C(=O)N[C@@H](Cc1c[nH]cn1)C(=O)N1CCC[C@H]1C(=O)N[C@@H](Cc1ccc(-c2ccccc2)cc1)C(=O)O)C(C)C)C(C)C [listing 2 of 2 here],Activity,[3],9.2
same,Activity,[4],71.7
same,Activity,[5],208.2
